According to paper PMC6616564, “Identification of ryuvidine as a KDM5A inhibitor” (Scientific Reports, 2019):
Like-named read-outs stand apart in the source and are kept apart here.

Columns and labels:
Assay type in all cases: biochemical
[1] = target: T1, KDM5A (His-tagged KDM5A 1-797) (Homo sapiens, UniProt P29375); experiment: AlphaScreen H3K4me3 demethylation
T1 construct: residues 1-797, C-terminally truncated, N-terminal His6 tag, Sf9 baculovirus, HisTrap purified
T1 sequence (P29375 1-797): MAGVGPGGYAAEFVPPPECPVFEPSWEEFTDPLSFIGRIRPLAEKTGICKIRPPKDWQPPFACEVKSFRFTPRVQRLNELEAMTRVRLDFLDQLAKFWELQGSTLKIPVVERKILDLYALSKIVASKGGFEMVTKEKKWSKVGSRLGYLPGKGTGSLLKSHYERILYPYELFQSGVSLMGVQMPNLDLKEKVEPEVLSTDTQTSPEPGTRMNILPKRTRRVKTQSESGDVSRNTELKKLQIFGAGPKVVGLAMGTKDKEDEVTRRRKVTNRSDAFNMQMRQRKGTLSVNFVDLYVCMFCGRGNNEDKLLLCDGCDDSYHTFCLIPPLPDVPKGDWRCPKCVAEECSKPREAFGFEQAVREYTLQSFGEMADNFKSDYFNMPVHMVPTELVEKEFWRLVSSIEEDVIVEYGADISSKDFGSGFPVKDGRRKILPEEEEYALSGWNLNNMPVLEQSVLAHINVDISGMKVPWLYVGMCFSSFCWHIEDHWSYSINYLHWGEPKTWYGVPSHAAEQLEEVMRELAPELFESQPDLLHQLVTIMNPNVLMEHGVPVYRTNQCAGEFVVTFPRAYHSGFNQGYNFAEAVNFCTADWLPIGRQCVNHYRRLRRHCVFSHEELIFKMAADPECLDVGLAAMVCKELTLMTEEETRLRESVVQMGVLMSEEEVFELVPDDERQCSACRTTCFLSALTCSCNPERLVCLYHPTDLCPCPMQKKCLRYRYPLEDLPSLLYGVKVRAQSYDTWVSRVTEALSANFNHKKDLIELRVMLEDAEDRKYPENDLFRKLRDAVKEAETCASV
Source text: AlphaScreen H3K4me3 demethylation on KDM5A (His-tagged KDM5A 1-797)

[2] = target: T2, KDM5C (His-tagged KDM5C 1-839) (Homo sapiens, UniProt P41229); experiment: MALDI-TOF MS demethylation assay
T2 construct: residues 1-839, C-terminally truncated, N-terminal His6 tag, Sf9 baculovirus, HisTrap purified
T2 sequence (P41229 1-839): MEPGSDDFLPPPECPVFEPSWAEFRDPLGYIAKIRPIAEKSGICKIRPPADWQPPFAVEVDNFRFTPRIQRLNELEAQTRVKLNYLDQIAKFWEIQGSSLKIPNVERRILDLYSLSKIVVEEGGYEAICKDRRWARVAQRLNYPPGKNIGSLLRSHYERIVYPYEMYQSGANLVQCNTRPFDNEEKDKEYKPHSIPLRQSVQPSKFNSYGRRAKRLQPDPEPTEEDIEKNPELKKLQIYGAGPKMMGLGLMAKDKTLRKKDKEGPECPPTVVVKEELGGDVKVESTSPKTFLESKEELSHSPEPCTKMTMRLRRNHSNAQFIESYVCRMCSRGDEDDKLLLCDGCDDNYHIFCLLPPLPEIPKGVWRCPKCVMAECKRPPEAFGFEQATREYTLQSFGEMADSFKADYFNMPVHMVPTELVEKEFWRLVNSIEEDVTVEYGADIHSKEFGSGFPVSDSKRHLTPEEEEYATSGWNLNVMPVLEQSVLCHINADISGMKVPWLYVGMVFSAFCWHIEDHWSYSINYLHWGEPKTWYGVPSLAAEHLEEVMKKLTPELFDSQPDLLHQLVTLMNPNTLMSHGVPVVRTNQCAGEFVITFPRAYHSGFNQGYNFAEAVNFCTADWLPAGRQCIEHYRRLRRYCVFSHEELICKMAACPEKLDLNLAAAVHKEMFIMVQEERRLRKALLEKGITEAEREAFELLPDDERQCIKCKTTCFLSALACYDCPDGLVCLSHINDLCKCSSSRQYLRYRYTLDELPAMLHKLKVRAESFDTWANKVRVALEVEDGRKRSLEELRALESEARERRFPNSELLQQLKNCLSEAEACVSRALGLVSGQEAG
Source text: MALDI-TOF MS demethylation assay on KDM5C (His-tagged KDM5C 1-839)

[3] = target: T3, KDM5B (His-tagged KDM5B 1-769) (Homo sapiens, UniProt Q9UGL1); experiment: MALDI-TOF MS demethylation assay
T3 construct: residues 1-769, C-terminally truncated, N-terminal His6 tag, Sf9 baculovirus, HisTrap purified
T3 sequence (Q9UGL1 1-769): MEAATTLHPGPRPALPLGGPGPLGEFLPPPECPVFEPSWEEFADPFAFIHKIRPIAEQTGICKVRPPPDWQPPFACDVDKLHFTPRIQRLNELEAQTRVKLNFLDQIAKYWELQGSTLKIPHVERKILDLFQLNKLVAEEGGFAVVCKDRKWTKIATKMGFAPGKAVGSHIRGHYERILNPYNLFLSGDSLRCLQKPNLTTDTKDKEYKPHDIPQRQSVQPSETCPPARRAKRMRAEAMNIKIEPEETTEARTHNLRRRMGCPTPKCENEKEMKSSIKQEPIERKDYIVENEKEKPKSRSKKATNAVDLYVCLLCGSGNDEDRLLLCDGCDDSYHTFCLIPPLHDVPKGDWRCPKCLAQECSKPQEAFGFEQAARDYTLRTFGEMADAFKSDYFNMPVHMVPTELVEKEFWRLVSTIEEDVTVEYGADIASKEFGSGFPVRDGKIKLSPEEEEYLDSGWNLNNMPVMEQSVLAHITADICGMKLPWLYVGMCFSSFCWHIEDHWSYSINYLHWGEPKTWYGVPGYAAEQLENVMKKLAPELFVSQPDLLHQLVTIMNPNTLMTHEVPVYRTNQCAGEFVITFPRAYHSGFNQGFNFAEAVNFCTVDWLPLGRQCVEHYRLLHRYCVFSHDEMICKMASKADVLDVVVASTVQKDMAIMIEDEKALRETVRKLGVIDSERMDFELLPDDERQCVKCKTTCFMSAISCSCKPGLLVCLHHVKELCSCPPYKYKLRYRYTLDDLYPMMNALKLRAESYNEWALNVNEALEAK
Source text: MALDI-TOF MS demethylation assay on KDM5B (His-tagged KDM5B 1-769)

[4] = target: T4, LSD2 (His-tagged ΔN25 human LSD2) (Homo sapiens, UniProt Q8NB78); experiment: MALDI-TOF MS demethylation assay; conditions: no inhibition at 50 μM; 10 μM H3K4me2 peptide, pH 8.5, 37 °C
T4 construct: gene KDM1B
T4 sequence (Q8NB78 26-822): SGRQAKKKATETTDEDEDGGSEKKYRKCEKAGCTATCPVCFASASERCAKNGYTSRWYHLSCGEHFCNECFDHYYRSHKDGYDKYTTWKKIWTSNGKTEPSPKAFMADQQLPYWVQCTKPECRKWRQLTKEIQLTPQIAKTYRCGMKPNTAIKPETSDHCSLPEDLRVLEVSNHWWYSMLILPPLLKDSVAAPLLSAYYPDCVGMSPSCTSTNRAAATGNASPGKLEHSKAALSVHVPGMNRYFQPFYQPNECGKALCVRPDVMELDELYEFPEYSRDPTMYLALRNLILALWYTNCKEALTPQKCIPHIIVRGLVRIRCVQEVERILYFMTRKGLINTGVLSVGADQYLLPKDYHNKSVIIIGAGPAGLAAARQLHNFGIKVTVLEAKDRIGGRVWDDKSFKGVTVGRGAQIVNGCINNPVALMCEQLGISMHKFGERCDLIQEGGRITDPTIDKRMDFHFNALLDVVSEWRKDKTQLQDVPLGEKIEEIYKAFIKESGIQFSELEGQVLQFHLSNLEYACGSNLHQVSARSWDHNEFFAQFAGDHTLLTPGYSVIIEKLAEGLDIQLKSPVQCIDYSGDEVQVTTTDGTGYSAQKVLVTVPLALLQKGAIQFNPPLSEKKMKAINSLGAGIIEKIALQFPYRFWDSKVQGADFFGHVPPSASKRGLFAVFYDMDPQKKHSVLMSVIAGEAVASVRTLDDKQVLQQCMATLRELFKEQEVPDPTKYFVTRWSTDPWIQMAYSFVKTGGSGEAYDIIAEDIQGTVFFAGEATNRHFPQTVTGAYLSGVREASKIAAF
Source text: MALDI-TOF MS demethylation assay on LSD2 (His-tagged ΔN25 human LSD2)

[5] = target: T5, LSD1 (His-tagged human full-length LSD1) (Homo sapiens, UniProt O60341); experiment: MALDI-TOF MS demethylation assay; conditions: no inhibition at 50 μM; 30 μM H3K4me2 peptide, pH 7.5, 37 °C
T5 construct: gene KDM1A
Source text: MALDI-TOF MS demethylation assay on LSD1 (His-tagged human full-length LSD1)

| Compound | IC50 ([1]; read-out: IC50 (μM)^a) [µM] | further results |
| --- | --- | --- |
| CC1(C)C(=O)N=C2C1=C(O)C(=O)c1ccccc12 [BVT948] | 2.6 | – |
| Cc1cc2nc3ccc(N(C)C)cc3[s+]c2cc1N [Tolonium Chloride] | 1.7 | – |
| Cc1ccc(NC2=CC(=O)c3sc(C)nc3C2=O)cc1 [Ryuvidine] | 1.4 | IC50 [2]: 8730 ± 1800 nM; IC50 [3]: 26 ± 10 nM; IC50 [4]: > 50000 nM; IC50 [5]: > 50000 nM |
| O=[N+]([O-])c1ccc(O)c2ncccc12 [Nitroxoline] | 5 | – |
| CN(C)c1ccc2nc3ccc(=[N+](C)C)cc-3sc2c1 [Methylene Blue] | 1.1 | – |
| O=C1C(SCCO)=C(SCCO)C(=O)c2ccccc21 [NSC95397] | 0.055 | – |
| Nc1ccc2cc3ccc(N)cc3nc2c1 [Proflavine Hemisulfate] | 1.8 | – |
| C[CH2][Hg][S]c1ccccc1C(=O)O [Thimerosal] | – | IC50 [1]: 0.13 µM |
